According to ChEMBL document CHEMBL3217545, “Synthesis and study of 2-acetyl amino-3-[4-(2-amino-5-sulfo-phenylazo)-phenyl]-propionic acid: a new class of inhibitor for hen egg white lysozyme amyloidogenesis” (Medchemcomm, 2013):
The source made the active and inactive calls. The calls are words filed in the database; no cut-off is given here.

Experiments:
[1] = Cytotoxicity against neuronal cells (unknown origin) by MTT assay; format: cell-based; conditions: neuron
[2] = biological target: Lysozyme C (Gallus gallus) (UniProt P00698); experiment: Binding affinity to hen egg white lysozyme assessed as formation of enzyme/compound complex formation at 2 x 10^-4 M by TCSPC spectroscopic analysis
[3] = biological target: Lysozyme C (Gallus gallus) (UniProt P00698); experiment: Inhibition of hen egg white lysozyme fibrillization at 2 x 10^-4 M after 2 weeks by congo red dye-based UV/Vis spectroscopic analysis
[4] = biological target: Lysozyme C (Gallus gallus) (UniProt P00698); experiment: Inhibition of beta-sheet aggregation of hen egg white lysozyme at 2 x 10^-4 M after 15 days by FT-IR spectroscopic analysis
[5] = biological target: Lysozyme C (Gallus gallus) (UniProt P00698); experiment: Binding affinity to hen egg white lysozyme at 2 x 10^-4 M by fluorescence spectroscopic analysis
[6] = biological target: Lysozyme C (Gallus gallus) (UniProt P00698); experiment: Inhibition of hen egg white lysozyme fibrillization assessed as diameter of granular aggregate at 2 x 10^-4 M after 15 days by atomic force microscopic analysis (reference value: 50 to 80 nm)
[7] = biological target: Lysozyme C (Gallus gallus) (UniProt P00698); experiment: Inhibition of beta-sheet aggregation of hen egg white lysozyme at 2 x 10^-4 M after 15 days by CD spectroscopic analysis
[8] = biological target: Lysozyme C (Gallus gallus) (UniProt P00698); experiment: Inhibition of hen egg white lysozyme fibrillization at 2 x 10^-4 M after 15 days by congo red dye-based crossed polarized optical microscopic analysis
[9] = biological target: Lysozyme C (Gallus gallus) (UniProt P00698); experiment: Binding affinity to hen egg white lysozyme at 2 x 10^-4 M by UV/Vis spectroscopic analysis
[10] = biological target: Lysozyme C (Gallus gallus) (UniProt P00698); experiment: Inhibition of hen egg white lysozyme fibrillization at 2 x 10^-4 M up to 100 hrs by Thioflavin T-based fluorescence assay

Chain of Lysozyme C (Gallus gallus) (P00698 whole entry): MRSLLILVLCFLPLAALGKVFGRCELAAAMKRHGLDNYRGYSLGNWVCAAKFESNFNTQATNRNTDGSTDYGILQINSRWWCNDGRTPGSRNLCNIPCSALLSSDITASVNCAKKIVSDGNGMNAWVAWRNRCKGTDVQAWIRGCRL

SMILES | Activity [1] | Activity [2] | inhibition [3] | inhibition [4] | Activity [5] | Activity [6] [nm] | inhibition [7] | inhibition [8] | Activity [9] | inhibition [10]
Nc1ccc(S(=O)(=O)O)cc1/N=N/c1ccc(C[C@H](NC(=O)C(F)(F)F)C(=O)O)cc1 | Non-toxic | Active | Active | Active | Active | 100 | Active | Active | Active | Active
CC(=O)N[C@@H](Cc1ccc(/N=N/c2cc(S(=O)(=O)O)ccc2N)cc1)C(=O)O | Non-toxic | Active | Active | Active | Active | 100 | Active | Active | Active | Active
